Measurements as given in ChEMBL document CHEMBL1201862, “PubChem BioAssay data set” (2004).
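How tested: cells in 96-well plates exposed to compound for 48 hours at five concentrations. Abbreviation: GI50, concentration required for 50% inhibition of growth.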 Activity calls are given as the source filed them. No stated cut-off is given here; in the data, active = GI50 up to about 1.1 µM and inactive = higher.

Key:
Experiment in all cases: NCI-60 cell line screen, 48 h
SNB-19 = system: SNB-19
Malme-3M = system: Malme-3M
OVCAR-4 = system: OVCAR-4
BT-549 = system: BT-549
HL-60 = system: HL-60
A549 = system: A549
MCF7 = system: MCF7
U-251 = system: U-251
KM12 = system: KM12
EKVX = system: EKVX
Hs-578T = system: Hs-578T
HCT-15 = system: HCT-15
SK-MEL-28 = system: SK-MEL-28
HCT-116 = system: HCT-116
SF-295 = system: SF-295
CAKI-1 = system: CAKI-1
UO-31 = system: UO-31
SF-268 = system: SF-268
K562 = system: K562
ACHN = system: ACHN

Compound | GI50 (SNB-19) | GI50 (Malme-3M) | GI50 (OVCAR-4) | GI50 (BT-549) | GI50 (HL-60) | GI50 (A549) | GI50 (MCF7) | GI50 (U-251) | GI50 (KM12) | GI50 (EKVX) | GI50 (Hs-578T) | GI50 (HCT-15) [µM] | GI50 (SK-MEL-28) | GI50 (HCT-116) | GI50 (SF-295) | GI50 (CAKI-1) | GI50 (UO-31) | GI50 (SF-268) | GI50 (K562) | GI50 (ACHN)
Cn1c(=S)c2nc(SCCN3C(=O)c4ccccc4C3=O)[nH]c2n(C)c1=O | > 100 µM (inactive) | > 100 µM (inactive) | > 100 µM (inactive) | > 100 µM (inactive) | > 100 µM (inactive) | > 100 µM (inactive) | 32.7 µM (inactive) | > 100 µM (inactive) | > 100 µM (inactive) | > 100 µM (inactive) | > 100 µM (inactive) | > 100 | > 100 µM (inactive) | > 100 µM (inactive) | > 100 µM (inactive) | > 100 µM (inactive) | > 100 µM (inactive) | > 100 µM (inactive) | > 100 µM (inactive) | > 100 µM (inactive)
CC/C(=N\NC(=O)c1cccnc1)c1ccc2c(c1)OCCO2 | > 100 µM (inactive) | 28.4 µM (inactive) | > 100 µM (inactive) | > 100 µM (inactive) | > 100 µM (inactive) | > 100 µM (inactive) | 66.5 µM (inactive) | > 100 µM (inactive) | 96.6 µM (inactive) | 64.1 µM (inactive) | 12.4 µM (inactive) | > 100 | > 100 µM (inactive) | > 100 µM (inactive) | > 100 µM (inactive) | > 100 µM (inactive) | > 100 µM (inactive) | > 100 µM (inactive) | 76 µM (inactive) | > 100 µM (inactive)
CC1=NN2C(=N)/C(=C/c3ccco3)C(=O)N=C2S1 | > 100 µM (inactive) | > 100 µM (inactive) | > 100 µM (inactive) | > 100 µM (inactive) | > 100 µM (inactive) | > 100 µM (inactive) | > 100 µM (inactive) | > 100 µM (inactive) | > 100 µM (inactive) | > 100 µM (inactive) | > 100 µM (inactive) | > 100 | > 100 µM (inactive) | > 100 µM (inactive) | > 100 µM (inactive) | > 100 µM (inactive) | > 100 µM (inactive) | > 100 µM (inactive) | > 100 µM (inactive) | > 100 µM (inactive)
N#Cc1cc(N(CCCl)CCCl)c([N+](=O)[O-])cc1[N+](=O)[O-] | > 100 µM (inactive) | 60.8 µM (inactive) | > 100 µM (inactive) | > 100 µM (inactive) | 22.3 µM (inactive) | 83.8 µM (inactive) | 86.3 µM (inactive) | > 100 µM (inactive) | > 100 µM (inactive) | > 100 µM (inactive) | > 100 µM (inactive) | > 100 | > 100 µM (inactive) | > 100 µM (inactive) | > 100 µM (inactive) | 11.1 µM (inactive) | > 100 µM (inactive) | > 100 µM (inactive) | > 100 µM (inactive) | 18.1 µM (inactive)
N#CC(Nc1ccccc1)c1ccc(C(C#N)Nc2ccccc2)cc1 (stereo not given) | 44.5 µM (inactive) | > 100 µM (inactive) | > 100 µM (inactive) | 38.6 µM (inactive) | 5.79 µM (inactive) | > 100 µM (inactive) | 29 µM (inactive) | 25.4 µM (inactive) | > 100 µM (inactive) | > 100 µM (inactive) | > 100 µM (inactive) | 18.2 | 41.2 µM (inactive) | 16.7 µM (inactive) | 40 µM (inactive) | 61.4 µM (inactive) | 21.1 µM (inactive) | > 100 µM (inactive) | 0.724 µM (active) | 22.3 µM (inactive)
CCN(CC)C(=O)N[C@@H](CC(C)C)C(=O)NC | > 100 µM (inactive) | > 100 µM (inactive) | > 100 µM (inactive) | > 100 µM (inactive) | 43.3 µM (inactive) | > 100 µM (inactive) | 49.4 µM (inactive) | > 100 µM (inactive) | > 100 µM (inactive) | > 100 µM (inactive) | > 100 µM (inactive) | > 100 | > 100 µM (inactive) | > 100 µM (inactive) | > 100 µM (inactive) | > 100 µM (inactive) | > 100 µM (inactive) | > 100 µM (inactive) | > 100 µM (inactive) | > 100 µM (inactive)
